Data taken from patent US11364208B2, “Topical compositions” (DSM IP ASSETS B.V., priority 2017, dated 2022).

Experiments:
[1] = system: Aspergillus brasiliensis; experiment: Antimicrobial efficacy in analogy to challenge test NF EN ISO11930, Aspergillus brasiliensis; format: cell-based; details: 24 h, 22° C.; for Aspergillus brasiliensis colony count: initial count 10000 cfu/ml
Method: (§1) The wells were contaminated with Malassezia furfur, Propionibacterium acnes, respectively Aspergillus brasiliensis to obtain the initial contamination as outlined in table 1, 2 and 3. […] The counting of the (remaining) population was carried out 24 h after contamination.
(The term “Log reduction” is a well-known mathematical term used to show the relative number of cells, germs, microbes, etc., reduced in or on something, e.g. a 2 log reduction means the number of microbes is 100 times smaller and a 3 log reduction means the number of microbes is 1000 times smaller).

[2] = system: Malassezia furfur; experiment: Antimicrobial efficacy in analogy to challenge test NF EN ISO11930, Malassezia furfur; format: cell-based; details: for Δ (change of microorganism count t = 0 h to t = 24): 24 h, 0.5 wt.-% of each active; for Δ (change of microorganism count t = 0 h to t = 24) / Malassezia furfur colony count: 22° C., initial count 3300 cfu/ml; for Malassezia furfur colony count: 24 h after contamination, physiological serum 0.85 wt.-% NaCl, 0.5 wt.-% of each active (0.5 wt.-% Erythrulose corresponds to 0.4 wt.-% of active)
Method: as §1

[3] = 0.5 wt.-% Erythrulose (corresponds to 0.4 wt.-% of active)
[4] = 0.4 wt.-% p-Hydroxyacetophenone

Row | Structure (SMILES) | Log step reduction [1, 3] | Aspergillus brasiliensis colony count [1, 3] [cfu/ml] | Δ (change of microorganism count t = 0 h to t = 24) [2] | Malassezia furfur colony count [2] [cfu/ml] | anti-fungal effect against Malassezia furfur (in words) ([2]; concentration of 0.5%) | Log step reduction [1, 4] | Aspergillus brasiliensis colony count [1, 4] [cfu/ml]
1 | O=C(CO)[C@@H](O)CO [Erythrulose, L-(+)-Erythrulose] | 2 | 100 | ±0% | 3300 | does not exert any anti-fungal effect |  | 
2 | CC(=O)c1ccc(O)cc1 [p-Hydroxyacetophenone, 1-(4-hydroxyphenyl)-ethanone] |  |  | −83% | 550 |  | 2 | 100
